# US4868156A, “Pharmaceutical preparation containing a dipeptide with cell growth regulating effect” (Bio-Tech A/S, priority 1986, dated 1989)
# Non-standard residues stand in square brackets, D forms with d. No end group written: not given here. pGlu = O=C1CC[C@@H](C(=O)O)N1
# System: mouse epidermal mitotic rate
# Assay: change in mouse epidermal mitotic rate after intraperitoneal injection (Colcemid method)
# Format: in vivo
# Details: 10^-13 moles of peptide injected per mouse, first three hours after injection, versus control animals from the same cage
# Method: In the following Table 1 the in vivo result (change in mouse epidermal mitotic rate) has been described as an example for one of the dipeptides. The epidermal mitotic rate was measured for the first three hours after intraperitoneal injection of the dipeptide. Mitotic rate was determined by means of "Colcemid". A reduced rate was determined as a percentage in comparison with control animals from the same cage.
substance,measurement,value
[pGlu]-Gly,Decrease in mitotic rate,40%
